Data on eleven molecules can be found in ChEMBL document CHEMBL1201862, “PubChem BioAssay data set” (2004).

Holding throughout (assay): NCI anticancer screen, dose series, 48 h
Assay [1] deals with NCI-H460.
In assay [2] the test system is A549.
Assay [3] has as its system M19-MEL.
Assay [4] deals with SK-MEL-2.
In assay [5] the test system is UACC-257.
Assay [6] relates to HOP-62.
The test system of assay [7] is K562.
Assay [8] concerns HCC 2998.
Assay [9] deals with HT-29.
In assay [10] the test system is CCRF-CEM.
For assay [11], the system named is SN12C.
Assay [12] relates to OVCAR-3.
For assay [13], the system named is HL-60.
For assay [14], the system named is Malme-3M.
Assay [15] deals with SF-539.
Assay [16] concerns OVCAR-4.
Assay [17] deals with SW-620.
Assay [18] has as its system HCT-116.
Assay [19] concerns CAKI-1.

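Values below derive from 48-hour exposures of cells grown in 96-well plates, with endpoints linearly interpolated between the two concentrations bracketing the appropriate inhibition level. Here, GI50 denotes the concentration required for 50% inhibition of growth.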 Activity calls are given as the source filed them. Rule as the data show it: active = GI50 up to about 1.1 µM and inactive = higher. Bounds are passed on as bounds.

Consider `N/N=C1\C(=O)N(C2CCCCCC2)C(=O)C1C(=O)NC1CCCCCC1` (stereo unspecified), for which the GI50 is 42.7 µM (inactive) in [1]; 49.1 µM (inactive) in assay [2]; 37.9 µM (inactive) in assay [3]; 19.1 µM (inactive) in assay [4]; 55.3 µM (inactive) in [5]; > 10 µM (inactive) in assay [6]. Besides, the GI50 was 30.3 µM (inactive) in assay [7]; 25.6 µM (inactive) in [8]; 32.1 µM (inactive) in [9]; 25.4 µM (inactive) in assay [10]; 27.9 µM (inactive) in assay [11]; 32.4 µM (inactive) in assay [12]. In addition, the GI50 was 19.8 µM (inactive) in assay [13]; 24.7 µM (inactive) in assay [14]; 24.7 µM (inactive) in assay [15]; 28.3 µM (inactive) in assay [16]; 28.3 µM (inactive) in assay [17].

Take `Cc1cc(N(CCC#N)CCC#N)ccc1/C=C(\NC(=O)/C=C/c1ccccc1)NC(=O)Nc1ccc(Cl)cc1`: the GI50 in assay [1] is > 100 µM (inactive); in assay [2] it was 32.5 µM (inactive); in assay [3], 93.1 µM (inactive); in [4], > 100 µM (inactive); in [5], > 100 µM (inactive); in [7] it was 2.13 µM (inactive). Moreover, the GI50 in assay [8] was 58.7 µM (inactive); in assay [9] it was > 100 µM (inactive); in assay [18], 23.6 µM (inactive); in assay [10], > 100 µM (inactive); in [11] it was > 100 µM (inactive); in assay [12], 80.5 µM (inactive). Moreover, the GI50 was 37.5 µM (inactive) in [13]; 73.6 µM (inactive) in assay [14]; 26 µM (inactive) in assay [15]; 19.2 µM (inactive) in assay [19]; 18.9 µM (inactive) in [16]; > 100 µM (inactive) in [17].

On to `CCc1cccc(C)c1NC(=O)C(=O)Cc1nc2ccccc2s1`, for which the GI50 in [1], in [2], in [3], in assay [4], in assay [5] and in [7] was > 100 µM (inactive) throughout. The GI50 in assay [8], in [9], in [18], in assay [10], in [11] and in assay [12] was > 100 µM (inactive) in each case. Also, the GI50 in [13] was > 100 µM (inactive); in assay [14] it was > 100 µM (inactive); in assay [15], > 100 µM (inactive); in assay [19], > 100 µM (inactive); in assay [16] it was > 100 µM (inactive); in [17] it was 0.371 µM (active).

For the molecule `CCCN(CCC)c1c([N+](=O)[O-])cc(C(=O)N(C)C)cc1[N+](=O)[O-]`, the GI50 in assay [1] is 47.3 µM (inactive); in [2], 51.5 µM (inactive); in assay [3], 92 µM (inactive); in [4] it was > 100 µM (inactive); in assay [5], 35.4 µM (inactive); in assay [7], 19.2 µM (inactive). Further, the GI50 in assay [8] is > 100 µM (inactive); in [9], > 100 µM (inactive); in assay [18], 43.4 µM (inactive); in [10], 28.4 µM (inactive); in assay [11] it was > 100 µM (inactive); in assay [12], 75 µM (inactive). Further, the GI50 in assay [13] was 15.6 µM (inactive); in assay [14], 52.6 µM (inactive); in assay [15], > 100 µM (inactive); in [19], > 100 µM (inactive); in assay [16] it was 15.5 µM (inactive).

As for `COC(=O)[C@@H]1C[C@H](c2ccc(OC)c(OC)c2)OC1=O.COC(=O)[C@H]1C[C@H](c2ccc(OC)c(OC)c2)OC1=O`, the GI50 in [1], in assay [2], in assay [3], in assay [5], in [6] and in assay [7] was > 100 µM (inactive) throughout. Moreover, the GI50 in assay [8] was 61.9 µM (inactive); in assay [9], > 100 µM (inactive); in assay [18], > 100 µM (inactive); in [10], > 100 µM (inactive); in assay [11], > 100 µM (inactive); in assay [12], > 100 µM (inactive). The GI50 in assay [13], in assay [14], in [15], in assay [19], in assay [16] and in assay [17] was > 100 µM (inactive) each time.

In the case of `COc1ccc(C(=O)N/N=C/c2c(C)n(C)n(-c3ccccc3)c2=O)cc1`, the GI50 in assay [1], in assay [2], in [3], in assay [4], in assay [5] and in assay [6] was > 100 µM (inactive) each time. The GI50 in assay [7], in assay [8], in [9], in [18], in assay [10] and in [11] was > 100 µM (inactive) each time. Also, the GI50 in [12], in assay [13], in assay [14], in assay [15], in [16] and in assay [17] was > 100 µM (inactive) throughout.

`NC(=O)COc1c(Br)cc(Br)cc1Br`: the GI50 in [1], in assay [2], in assay [3], in assay [4], in assay [5] and in assay [6] was > 100 µM (inactive) each time. Further, the GI50 in assay [7], in [8], in assay [9], in assay [18], in [10] and in assay [11] was > 100 µM (inactive) in each case. The GI50 in assay [12] was > 100 µM (inactive); in assay [14] it was > 100 µM (inactive); in [15], > 100 µM (inactive); in assay [19], > 100 µM (inactive); in assay [16] it was 27.7 µM (inactive).

As to `C=Nc1ccc([N+](=O)[O-])cc1`, the GI50 in [1] is > 59.4 µM (inactive); in assay [2], > 100 µM (inactive); in assay [3], > 100 µM (inactive); in assay [4], > 100 µM (inactive); in [5], > 100 µM (inactive); in [7] it was > 44.6 µM (inactive). The GI50 in assay [8] was > 100 µM (inactive); in assay [9] it was > 100 µM (inactive); in assay [18], > 100 µM (inactive); in [10], > 63.1 µM (inactive); in [11], > 65.3 µM (inactive); in assay [12], > 100 µM (inactive). The GI50 in [13] was > 62.7 µM (inactive); in assay [14] it was > 100 µM (inactive); in assay [15], > 100 µM (inactive); in assay [19] it was > 100 µM (inactive); in assay [16], > 100 µM (inactive); in assay [17], > 63.8 µM (inactive).

Regarding `COC1=CC(=O)C2[C@H]3Cc4ccccc4[C@H]3C2(C)C1=O` (stereo partly specified), the GI50 in [1] is > 100 µM (inactive); in [2], > 100 µM (inactive); in [3], 83.2 µM (inactive); in [4], > 100 µM (inactive); in [5], > 100 µM (inactive); in [6], > 100 µM (inactive). Moreover, the GI50 in [7] was 52.1 µM (inactive); in assay [8], > 100 µM (inactive); in assay [9], > 100 µM (inactive); in assay [10] it was 55.2 µM (inactive); in assay [12], > 100 µM (inactive); in [14], > 100 µM (inactive). The GI50 in assay [15], in [19], in [16] and in assay [17] was > 100 µM (inactive) in each case.

As to `C/C(N)=[N+](/C)[O-]`, the GI50 in [1] is 25.4 µM (inactive); in assay [2], > 100 µM (inactive); in [3], 40.5 µM (inactive); in assay [4], > 100 µM (inactive); in assay [5], > 100 µM (inactive); in [6], > 100 µM (inactive). Besides, the GI50 is 39.5 µM (inactive) in assay [7]; 36.9 µM (inactive) in [8]; 83.6 µM (inactive) in assay [9]; > 100 µM (inactive) in assay [18]; 23.4 µM (inactive) in assay [10]; 92.9 µM (inactive) in [11]. The GI50 in assay [12] is > 100 µM (inactive); in assay [13] it was > 100 µM (inactive); in assay [14], > 100 µM (inactive); in assay [15] it was 69.2 µM (inactive); in [16] it was 38.5 µM (inactive).

`COc1ccc2oc3c(OC)c(OC)c(OC)cc3c(=O)c2c1`: the GI50 was > 100 µM (inactive) in assay [1]; > 100 µM (inactive) in [2]; > 100 µM (inactive) in [3]; > 100 µM (inactive) in [4]; > 100 µM (inactive) in assay [5]; 50.2 µM (inactive) in assay [6]. Also, the GI50 in assay [7], in assay [8], in assay [9], in assay [18], in assay [10] and in [11] was > 100 µM (inactive) in each case. The GI50 is > 100 µM (inactive) in assay [14]; 40.4 µM (inactive) in assay [15]; > 100 µM (inactive) in assay [19]; > 100 µM (inactive) in assay [16]; > 100 µM (inactive) in assay [17].
